Measured values published in paper PMC6068598 (ACS Omega, 2018).

What was measured:
[1] = molecular target: hTau-441 fibrils (Homo sapiens, UniProt P10636); test: Inhibition of [3H]astemizole binding to synthetic hTau-441 fibrils
[2] = imidazolyl sulfoxide moiety; cited from earlier work
[3] = First-in-man PET brain uptake in healthy volunteers; settings: for peak uptake, whole brain: initial perfusion phase, 1 min p.i., i.v. bolus, healthy volunteers
[4] = tested on: monoamino oxidase A; settings: cited from earlier work
[5] = tested on: monoamino oxidase B; settings: no reference given; cited from earlier work

Sequence of hTau-441 fibrils (P10636 1-441 isoform P10636-8): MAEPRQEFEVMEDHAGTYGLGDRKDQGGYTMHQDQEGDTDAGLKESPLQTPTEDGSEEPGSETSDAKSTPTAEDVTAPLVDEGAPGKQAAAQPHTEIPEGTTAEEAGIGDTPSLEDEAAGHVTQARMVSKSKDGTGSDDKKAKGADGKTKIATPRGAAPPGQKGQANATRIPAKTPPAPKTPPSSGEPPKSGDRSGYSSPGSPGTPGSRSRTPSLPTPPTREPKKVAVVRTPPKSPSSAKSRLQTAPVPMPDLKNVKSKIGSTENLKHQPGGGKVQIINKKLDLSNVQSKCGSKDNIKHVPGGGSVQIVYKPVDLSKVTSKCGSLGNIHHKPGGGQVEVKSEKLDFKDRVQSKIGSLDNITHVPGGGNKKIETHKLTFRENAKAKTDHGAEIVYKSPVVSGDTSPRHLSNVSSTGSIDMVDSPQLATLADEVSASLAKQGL

Cc1c(OCCF)ccnc1C[S+]([O-])c1nc2ccccc2n1C (centres unmarked) [11t, 2-(((4-(2-Fluoroethoxy)-3-methylpyridin-2-yl)methyl)sulfinyl)-1-methyl-1H-benzoimidazole]
htau fibril binding result [1]: very high affinity

Cc1c(OCC(F)(F)[18F])ccnc1C[S+]([O-])c1nc2ccccc2[nH]1 (centres unmarked) [[^18F]1, [^18F]lansoprazole]
pKa (N–H-acidity) [2]: ~4 | whole brain activity at 2 min p.i. ([3]; 2 min p.i.): less than 1.0 % i.D. | whole brain activity after 90 min ([3]; after 90 min): below 0.5% | peak uptake, whole brain [3]: 2.5–3.5 % i.D.

Cc1c(OCC(F)(F)[18F])ccnc1C[S+]([O-])c1nc2ccccc2n1C (centres unmarked) [[^18F]2]
radioactivity concentration in brain at 10 min ([3]; 10 min): about 3.0 % of the injected dose | radioactivity concentration in brain at 27 min ([3]; 27 min): ~2.0 % of the injected dose | radioactivity concentration in brain at 90 min ([3]; 90 min): ~1.3 % of the injected dose | peak uptake, whole brain [3]: 5.0–6.0 % i.D.

[18F]c1ccc(-c2ccc3c(c2)[nH]c2ccncc23)cn1 [[^18F]T807]
affinity to monoamino oxidase A [4]: high affinity

CNc1ccc(-c2ccc3cc(OC[C@H](O)C[18F])ccc3n2)cn1 [[^18F]THK-5351]
affinity for monoamino oxidase B [5]: high affinity
